# Tested on: HIV-1
# Test: Viral infectivity test on HeLa P4 cells
# Type: cell-based
# Procedure: FIG. 2: Effects of G4 ligands compared with AZT on HIV-1 infectivity using the HeLa P4 cell system for studying the replication of HIV-1. The HeLa P4 cells contain a gene lacZ encoding beta-galactosidase under the control of the viral LTR and whose transcription is activated by the viral protein Tat. The cells are incubated with the ligand then infected with HIV-1. After 24 hours the activity of beta-galactosidase, which is proportional to the infectivity of the virus is then measured on a fluorescence plate reader.
# C. Cell lines and viruses: HeLa P4 cells encoding a Tat-inducible β-galactosidase were maintained in DMEM medium (Invitrogen) supplemented with 10% inactivated FCS, 1 mg/ml geneticin (G418, Gibco-BRL), gentamycin. MT4 and H9LaI cells were grown in RPMI 1640 glutamax medium (Invitrogen) supplemented with 10% inactivated FCS. HIV-1 viruses were obtained after 48 h co-culture of MT4 cells (0.5×10^6/ml) and H9Laï cells (1×10^6/ml), chronically infected by HIV-1LaI isolate, in RPMI 1640 glutamax medium supplemented with 10% inactivated FCS, at 37° C. under humidified atmosphere and […]. […]
# D. Viral infectivity test: The G4 ligands are incubated in presence of the HelaP4 cells 20 minutes before infection. […] After 24 h, the reaction was measured in a fluorescence microplate reader (Cytofluor II, Applied Biosystems) at 360/460 nm Ex/Em.
SMILES,"IC50 (24 h of infection, beta-galactosidase readout) [nM]",inhibition of viral replication
Cc1cn([C@H]2C[C@H](N=[N+]=[N-])[C@@H](CO)O2)c(=O)[nH]c1=O [AZT],40,–
C[n+]1ccc(-c2c3nc(c(-c4cc[n+](C)cc4)c4ccc([nH]4)c(-c4cc[n+](C)cc4)c4ccc([nH]4)c(-c4cc[n+](C)cc4)c4nc2C=C4)C=C3)cc1 [Tmpyp4],–,weak inhibitors of viral replication

# — US11046704B2, “Derivatives of porphyrins, their process of preparation and their use for treating viral infections” (INSTITUT NATIONAL DE LA SANTE ET DE LA RECHERCHE MEDICALE …, priority 2015, dated 2021)
